Reference: patent US20220193185A1, “COMBINATION OF SYNTHETIC PEPTIDES WITH AFFINITY TO THE TGF-ß RECEPTOR AND WITH AFFINITY TO THE IL-10 RECEPTOR, PHARMACEUTICAL COMPOSITION AND THEIR USE AS IMMUNOMODULATORS IN THE TREATMENT OF AUTOIMMUNE, INFLAMMATORY OR ALLERGIC DISEASES” (Universidade Federal de Uberlândia, priority 2019, published 2022)
Bridges are numbered along the chain shown (N, C = ends). Where no end group is shown, it is not given here.

Assays:
J774 cell line = assay: cytokine production after treatment of the J774 cell line; assay type: cell-based
Protocol: After 24 hours of treatment, the levels of IL-6, MCP-1 and TNF-α produced were measured.
Decreases were significant compared to cells treated with LPS alone (positive control). *P<0.05; **P<0.005; ***P<0.0005.

IFN signaling pathway = IFN signaling pathway in Jurkat-Dual reporter cells, SEAP production; assay type: cell-based; settings: after 12, 24 and 48 hours; results depend on concentration
Protocol: (§1) In order to investigate the ability of synthetic peptides with affinity to the Interleukin-10 receptor to interfere in the NFkB, IFN and TLR4 pathways, reporter cell lines were used. To analyze whether the isolated peptides (without activation molecules) could induce any type of activation, the isolated peptides were tested in cell lines during 12, 24 and 48 hours of treatment. […] As an example, FIG. 13A, FIG. 13B, and FIG. 13C show an analysis of NFkB expression after stimulation with the synthesized IL-10 receptor affinity synthetic peptides described herein. Cells were treated for 12, 24 and 48 hours with the synthesized peptides Pep 1-IL10, Pep 2-IL10, Pep 3-IL10 and Pep 4-IL10, at different concentrations, without activating molecules. Luciferase was then measured after 12 hours of treatment (FIG. 13A), 24 hours of treatment (FIG. 13B) and 48 hours of treatment (FIG. 13C). […] TNF-α (200 ng/mL) was used as a positive control.
The most significant results will be described below. […] When cells were pretreated with IFN, although peptides at some concentrations indicated results, they were not statistically sufficient. Therefore, we cannot confirm whether they were able to interfere with pathway activation (FIGS. 17 A, B and C) in an equal or better way than the negative control (rIL-10). In the assays shown by FIGS. 16 (A, B and C) and FIGS. 17 (A, B and C), analysis of IFN expression was performed in Jurkat-Dual reporter cells. In the assays shown by FIGS. 16 A, B and C, cells were treated for 1 hour with peptides with further addition of IFN-α (104 EU/ml). Secreted Embryonic Alkaline Phosphatase (SEAP) production was measured after 12 hours of treatment (FIG. 16A), 24 hours of treatment (FIG. 16 B) and 48 hours of treatment (FIG. 16 C). In the assays shown by FIGS. 17A, B and C, cells were treated for 1 hour with IFN-α (104 EU/ml) with further addition of the peptides. SEAP production was measured after (A) 12 hours of treatment (B), 24 hours of treatment and (C) 48 hours of treatment. IFN-α (104 EU/ml) was used as a positive control and rlL-10 (0.4 ng/ml) as a negative control. *P<0.05.

[1] = aggregation behavior in solution by Dynamic Light Scattering (DLS); assay type: physicochemical
[2] = test system: rat basophilic leukemia cells transfected with the human FIϵRI IgE receptor (hRBL); assay: IgE-mediated release in hRBL cells sensitized with serum from patients allergic to birch pollen, Bet v 1; assay type: cell-based; settings: Pep 1-IL-10 at 1 μM; serum from seven birch pollen allergic donors
Protocol: The effect of IL-10 mimetic peptides on IgE-mediated release was examined using rat basophilic leukemia cells transfected with the human FIϵRI IgE receptor (hRBL). As an example, we selected as an example Pep 1-IL-10 to show the data obtained. The hRBL cells were sensitized with serum from seven patients allergic to birch pollen. Cells were stimulated with the antigen and its interaction with immobilized IgEs caused a release of b-hexosaminidase.
When cells were treated with a composition comprising Pep 1-IL-10 at 1 μM (FIG. 21A) or rIL10 (FIG. 21B), the amount of Bet v 1 needed to induce the same amount of degranulation was higher when compared to cells treated only with Bet vl (P<0.05). Amount of rBet v 1 (ng/mL) required to induce half the release of b-hexosaminidase using serum from seven birch pollen allergic donors after treatment with Pep 1-IL-10 (A) (P<0.05) and rIL10 (B)*P<0.05.

NFkB pathway [3] = assay: NFkB expression in Jurkat-Dual reporter cells, luciferase (IL-10 mimetic peptides); assay type: cell-based; settings: for concentrations with statistically significant decrease of NFKB activation: peptide pretreatment 1 hour, then TNF-α 200 ng/ml
Protocol: as §1
The assay was then carried out using TNF-α as activation molecule not only in the control, but after a pretreatment with the synthesized peptides Pep 1-IL10, Pep 2-IL10, Pep 3-IL10 and Pep 4-IL10, at different concentrations. All peptides were able to modulate NFKB activation after 12, 24 and 48 hours, with different results depending on the concentrations used. […] In the assays shown by FIGS. 14 A, B and C, analysis of NFkB expression was performed in Jurkat-Dual reporter cells. Cells were treated for 1 hour with peptides and TNF-α (200 ng/ml) added. Luciferase was measured after 12 hours of treatment (FIG. 14A), 24 hours of treatment (FIG. 14B) and 48 hours of treatment (FIG. 14C).
Another assay was then performed in which cells were pretreated with TNF-α and the synthesized peptides Pep 1-IL10, Pep 2-IL10, Pep 3-IL10 and Pep 4-IL10, at different concentrations, were added later. All peptides were able to modulate NFKB activation after 12, 24 and 48 hours, with different results depending on the concentrations used. The most significant results will be described below. […] After 48 hours of treatment, Pep 1-IL-10 at a concentration of 0.001 μM (P<0.05) was the one that obtained a result with the highest statistical significance in the decrease of NFKB signaling (FIG. 15C). In the assays shown by FIGS. 15 A, B and C, analysis of NFkB expression was performed in Jurkat-Dual reporter cells. Cells were treated for 1 hour with TNF-α (200 ng/ml) and peptides were added. Luciferase was measured after 12 hours of treatment (FIG. 15A), 24 hours of treatment (FIG. 15B) and 48 hours of treatment (FIG. 15C). TNF-α (200 ng/mL) was used as a positive control and rlL-10 (recombinant Interleukin-10) (0.4 ng/mL) as a negative control. *P<0.05; **P<0.005; ***P<0.0005.

[4] = test system: TFGβRII/SMAD-dependent pathway; assay: HEK-blue-TGFβ reporter cells, SEAP production; assay type: cell-based; settings: 12 hours; tested at 0.1, 1, 10 and 100 μM
Protocol: After 12 hours of stimulation (FIG. 4A), all peptides were able to bind to the receptor.
The assay was performed in such a way that approximately 2.5×10^4 cells/well (100 μL) were treated with 100 μL of all synthetic peptides at different concentrations (100 μM, 10 μM, 1 μM and 0.1 μM) while rTGF-β1 ([…]) at 100 ng/ml was used as a positive control. After incubating the cells for 12, 24 and 48 hours at 37° C. in 5% CO2, […] of supernatant was transferred to a Greiner plate to which […] of Quanti-blue solution was added. The plate was incubated for 1 hour at 37° C. in 5% CO2 and the production of SEAP (secreted alkaline phosphatase) was detected at 655 nm. All tests were performed in triplicate.

TLR4 pathway = assay: HEK-Blue hTLR4 reporter cells, SEAP production (TGF-β1 mimetic peptides); assay type: cell-based; settings: peptide pretreatment 1 hour, then LPS 100 ng/mL; 12 hours
Protocol: Similar to the treatment using Jurkat cells, peptides in compositions with different concentrations were also tested in HEK cells to investigate their ability to interfere with the TLR4 pathway.
To ensure that the peptides could not induce any activation when tested alone (no pathway activation molecule) only the peptides were added into the cell line and SEAP production was measured after 12 hours of treatment (Figure not shown).
The assay was performed using HEK-Blue hTLR4 reporter cells (InvivoGen) to investigate the action of peptides in the TLR4 pathway. A total of 2.3×10^4 cells/well ([…]) was pretreated with […] of composition comprising at least one of the synthetic peptides at concentrations of 100 μM, 10 μM, 1 μM, and 0.1 μM for 1 hour at 37° C. ° C. in 5% CO2 followed by LPS stimulation at 100 ng/mL for 12 hours. The same stimuli were applied to cells pretreated with LPS at 100 ng/ml for 1 hour at 37° C. in 5% CO2, followed by stimuli with peptides at 100 μM, 10 μM, 1 μM and 0.1 μM for 12 hours. Stimuli were added in Quanti-blue medium and SEAP production was measured at 655 nm. As a control, peptides at the same concentrations were tested alone to investigate whether they could activate the TLR4 pathway and LPS was used as a positive control.

[5] = test system: TGF-β1 receptor on A549 cells; assay: ELISA on cells of the A549 line using anti-TGF-β1 antibody; assay type: binding, human
Protocol: The peptides described in this patent application were selected using the Phage Display (PD) methodology. The selection was performed by evaluating the ability of said peptides to recognize the TGF-β1 receptor on A549 cells, using an ELISA assay. MaxiSorp 96-well microtiter plates were coated with 1×10^6 cells diluted in PBS and incubated overnight at 4° C. Cells were blocked with 3% PBS-BSA for 1 h at 37° C., washed once with PBS and incubated with […] of each TGF-β1 mimetic peptide or 5 ng/ml of recombinant TGF-β1 for 1 h at 37° C. After washing, the plate was incubated for 1 h at 37° C. with anti-TGF-β1 antibody. The plate was washed and incubated with HRP-labeled anti-human IgG antibody for 1 h at 37° C. After washing, TMB substrate solution was added to the plate; the reaction was stopped by adding the 2N H2SO4 solution and read at 492 nm in a microplate reader.
To investigate whether the synthesized peptides could bind to cell receptors, an ELISA assay was performed on cells of the A549 line using commercial anti-TGF-β1 antibody.

NFkB pathway [6] = assay: NFkB expression in Jurkat cells, luciferase (TGF-β1 mimetic peptides); assay type: cell-based, human; settings: peptide pretreatment 1 hour, then TNF-α, tested at 0.1-100 μM
Protocol: Two different cell treatments were performed using Jurkat cells to analyze NFkB expression after 12, 24 and 48 hours. In the first test, Jurkat cells were treated only with peptides (no pathway activating molecule) at different concentrations to analyze the ability of each peptide to induce NFkB expression (Figure not shown). None of the tested concentrations induced any type of pathway activation.
The assay was carried out in such a way that a total of 3×10^5 cells/well ([…]) was pretreated with […] of a composition comprising one of the synthetic peptides in concentrations of 100 μM, 10 μM, 1 μM, and 0.1 μM for 1 hour at 37° C. in 5% CO2, followed by stimulation with TNF-α (200 ng/ml) for 12, 24 and 48 hours. The same stimuli were applied to cells pretreated with TNF-α (200 ng/ml) for 1 hour at 37° C. in 5% CO2 followed by stimulation with peptides at 100 μM, 10 μM, 1 μM and 0.1 μM for 12, 24 and 48 hours. Then, […] of supernatant was transferred to a white plate and Quanti-Luc reagent was used to measure the luciferase product. As a control, the peptides were tested at the same concentrations, without any pathway activating molecule, to investigate whether they could activate the NFkB pathway. TNF-α (200 ng/mL) was used as a positive control and rIL-10 (0.4 ng/mL) as a negative control. […].

[7] = peptide followed by LPS, 24 hours

Molecule	production of IL-10, IFN-g or IL12p70 (J774 cell line; 24 hours of treatment)	production of IL-6, MCP-1 and TNF-α (J774 cell line; peptide followed by LPS for 24 hours)	concentrations that significantly reduced IL-6 levels vs LPS alone (J774 cell line; [7])	concentrations that significantly reduced MCP-1 levels vs LPS alone (J774 cell line; [7])	concentrations that significantly reduced TNF-α levels vs LPS alone (J774 cell line; [7])	cytokine response to peptide alone (J774 cell line; without LPS stimulation, 24 hours)	modulation of the activation of the IFN signaling pathway (IFN signaling pathway)	measured hydrodynamic radius ([1]; IL-10 mimetic peptides in solution)	amount of Bet v 1 needed to induce the same amount of degranulation (half the release of b-hexosaminidase) vs Bet v 1 only [2]	concentration with highest statistical significance in the decrease of NFKB signaling (NFkB pathway [3]; cells pretreated 1 hour with TNF-α 200 ng/ml, peptides added, 48 hours)	concentrations with statistically significant decrease of NFKB activation (NFkB pathway [3]; 12 hours)	concentrations with statistically significant decrease of NFKB activation (NFkB pathway [3]; 24 hours)	concentrations with statistically significant decrease of NFKB activation (NFkB pathway [3]; 48 hours)	induction of NFkB expression by peptides alone (NFkB pathway [3]; without activating molecules, 12, 24 and 48 hours, different concentrations)	concentrations with statistically significant activation of the SMAD-dependent pathway (SEAP) [4]	hydrodynamic radius ([1]; TGF-β1 mimetic peptides in solution)	concentrations with statistically significant reduction of TLR4 pathway activation (TLR4 pathway)	recognition of receptor-bound peptide by anti-TGF-β1 antibody compared to recombinant TGF-β1 [5]	concentrations with statistically significant decrease of NFKB pathway activation vs TNF-α control (NFkB pathway [6]; 24 hours)	concentrations with statistically significant decrease of NFKB pathway activation vs TNF-α control (NFkB pathway [6]; 48 hours)
Pep 1-IL-10: synthetic peptide with affinity to the Interleukin-10 receptor, SEQ ID 09, with disulfide bridges (HACSAVIKSSCGGGS; disulfide 3-11 (inferred))	No interference	able to decrease	1 μM, 10 μM and 100 μM	1 µM and 10 µM	1 μM, 10 μM and 100 μM	unable to induce any response	able to modulate the activation of the IFN signaling pathway	0.82 nm	higher	0.001 µM	all concentrations tested	all concentrations tested	all concentrations tested	not able to induce any response	–	–	–	–	–	–
Pep 7-TGF-β1: synthetic peptide with affinity to the TGF-β receptor, SEQ ID N 07, free of disulfide bridges (HASTIASTLHSGGGS)	–	–	–	–	–	–	–	–	–	–	–	–	–	–	0.1 μM: 1 μM; 10 μM and 100 μM	2.94 nm	0.1 μM; 1 μM and 10 μM	recognized as statistically different	1 µM and 100 µM	1 µM
rIL10: recombinant Interleukin-10, used as control (protein, UniProt P22301 19-178, looked up) Interleukin-10: SPGQGTQSENSCTHFPGNLPNMLRDLRDAFSRVKTFFQMKDQLDNLLLKESLLEDFKGYLGCQALSEMIQFYLEEVMPQAENQDPDIKAHVNSLGENLKTLRLRLRRCHRFLPCENKSKAVEQVKNAFNKLQEKGIYKAMSEFDIFINYIEAYMTMKIRN	–	–	–	–	–	–	–	–	higher	–	–	–	–	–	–	–	–	–	–	–
